Experimental findings from patent US20210261561A1, “BICYCLIC HETEROCYCLE DERIVATIVES HAVING SELECTIVE BACE1 INHIBITORY ACTIVITY” (SHIONOGI & CO., LTD., priority 2018, published 2021) are described below.

Test [1] deals with T1, BACE1 (Homo sapiens, UniProt P56817). The test can be described thus: BACE1 biochemical FRET based assay (Test Example 2-1). From the text:
(§1) This assay is a Fluorescence Resonance Energy Transfer Assay (FRET) based assay. The substrate for this assay is an APP derived 13 amino acids peptide that contains the ‘Swedish’ Lys-Met/Asn-Leu mutation of the amyloid precursor protein (APP) beta-site secretase cleavage site. This substrate also contains two fluorophores: (7-methoxycoumarin-4-yl) acetic acid (Mca) is a fluorescent donor with excitation wavelength at 320 nm and emission at 405 nm and 2,4-dinitrophenol (Dnp) is a proprietary quencher acceptor. […] Upon cleavage by BACE1, the fluorophore Mca is separated from the quenching group Dnp, restoring the full fluorescence yield of the donor. The increase in fluorescence is linearly related to the rate of proteolysis.
(§2) Briefly in a 384-well format recombinant BACE1 protein in a final concentration of 0.04 μg/mL is incubated for 450 minutes at room temperature with […] substrate in incubation buffer (final concentrations: 33.3 mM Citrate buffer pH 5.0, 0.033% PEG, 3% DMSO) in the absence or presence of compound. Next the amount of proteolysis is directly measured by fluorescence measurement at T=0′-120′ and T=450′ (excitation at 320 nm and emission at 405 nm). Results are expressed in RFU (Relative Fluorescence Units), as difference between T450 and Tx (Tx is chosen depending on the reaction speed between 0 and 120 minutes.).
A best-fit curve is fitted by a minimum sum of squares method to the plot of % Controlmin versus compound concentration. From this an IC50 value (inhibitory concentration causing 50% inhibition of activity) can be obtained.

In test [2] the target is T2, BACE2 (Homo sapiens, UniProt Q9Y5Z0).
T2 sequence (Q9Y5Z0 63-518): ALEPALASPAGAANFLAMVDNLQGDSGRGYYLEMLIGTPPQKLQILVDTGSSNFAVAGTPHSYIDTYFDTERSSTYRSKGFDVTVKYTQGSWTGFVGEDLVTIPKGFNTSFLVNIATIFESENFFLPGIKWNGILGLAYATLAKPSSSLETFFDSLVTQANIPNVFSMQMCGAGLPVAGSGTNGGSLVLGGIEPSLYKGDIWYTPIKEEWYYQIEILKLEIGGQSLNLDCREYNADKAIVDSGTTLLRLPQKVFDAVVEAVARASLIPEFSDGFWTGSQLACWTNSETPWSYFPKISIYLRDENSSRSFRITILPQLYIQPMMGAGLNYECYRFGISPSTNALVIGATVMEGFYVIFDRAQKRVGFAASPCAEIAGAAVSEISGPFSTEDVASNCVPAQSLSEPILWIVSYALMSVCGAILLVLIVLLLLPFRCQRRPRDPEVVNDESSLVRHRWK
The test can be described thus: BACE2 biochemical FRET based assay (Test Example 2-1 (2)). Particulars: 0.4 μg/mL BACE2, 450 minutes, Citrate buffer pH 5.0. From the text:
This assay is a Fluorescence Resonance Energy Transfer Assay (FRET) based assay. The substrate for this assay contains the ‘Swedish’ Lys-Met/Asn-Leu mutation of the amyloid precursor protein (APP) beta-secretase cleavage site. This substrate also contains two fluorophores: (7-methoxycoumarin-4-yl) acetic acid (Mca) is a fluorescent donor with excitation wavelength at 320 nm and emission at 405 nm and 2,4-dinitrophenol (Dnp) is a proprietary quencher acceptor. […] Upon cleavage by the beta-secretase, the fluorophore Mca is separated from the quenching group Dnp, restoring the full fluorescence yield of the donor. The increase in fluorescence is linearly related to the rate of proteolysis. Briefly in a 384-well format recombinant BACE2 protein in a final concentration of 0.4 μg/mL was incubated for 450 minutes at room temperature with 10 μM substrate in incubation buffer (final concentrations: 33.3 mM Citrate buffer pH 5.0, 0.033% PEG, 2% DMSO) in the absence or presence of compound. Next the amount of proteolysis was directly measured by fluorescence measurement at T=0 and T=450 (excitation at 320 nm and emission at 405 nm). Results were expressed in RFU (Relative Fluorescence Units), as difference between T450 and TO.
A best-fit curve was fitted by a minimum sum of squares method to the plot of % Controlmin versus compound concentration. From this an IC50 value (inhibitory concentration causing 50% inhibition of activity) can be obtained.

The subject of test [3] is Abeta 1-37, Abeta 1-38, Abeta 1-40 and Abeta 1-42 in cerebrospinal fluid (CSF). The test can be described thus: Pharmacology in the beagle dog, beta-amyloid profile in CSF (Test Example 18-1). Format: in vivo. Here is the method:
Test compounds were tested to evaluate the effect on the beta-amyloid profile in cerebrospinal fluid (CSF) of dogs after a single dose, in combination with pharmacokinetic (PK) follow up and limited safety evaluation.
In the case of compounds shown below, two beagle dogs (1 male, 1 female) were dosed with vehicle (1 mL/kg of an aqueous solution of 20% cyclodextrin) and 4 beagle dogs (2 males and 2 females) were dosed with test compound at the doses indicated in the following Table in an aqueous 20% cyclodextrin solution with a concentration in mg/mL identical to the dose given in mg/kg) on an empty stomach.
CSF was taken in conscious animals directly from the lateral ventricle via a cannula which was screwed in the skull and covered with subcutaneous tissue and skin, before and at 4, 8, 25 and 49 hours after dosing. Eight hours after dosing the animals got access to their regular meal for 30 minutes. Blood was taken for PK follow up (0.5, 1, 2, 4, 8, 25 and 49 hours) and serum samples for biochemistry were taken before and at 8 and 25 h after dosing. The CSF samples were used for measurement of Abeta 1-37, Abeta 1-38, Abeta 1-40 and Abeta 1-42.

Test [4] addresses T1, BACE1. The test is described as follows: BACE1 biochemical FRET based assay - Method 1 (Test Example 2-2). Particulars: 0.04 μg/mL BACE1, 450 minutes, Citrate buffer pH 5.0, read-out: BACE1 Biochemical FRET based assay - Method 1 PIC50 (converted).
Text: as §1, §2
(§3) Data are analysed using Screener (Registered trademark) (Genedata, Switzerland). Data were normalized and % inhibition=100−[(sample−LC)/(HC−LC))*100], was plotted versus the log concentration of the test compound. Curves were analysed using non-linear regression analysis and IC50 values (inhibitory concentration causing 50% inhibition of activity) were derived from individual curves.
(§4) LC=Median of the low control values
(§5) =Low control: Reaction without enzyme
(§6) HC=Median of the High control values
(§7) =High Control: Reaction with enzyme
(§8) % Inhibition=100−[(sample−LC)/(HC−LC)*100]

Test [5] deals with T2, BACE2. The test can be described thus: BACE2 biochemical FRET based assay (Test Example 2-4). Particulars: recombinant BACE2 0.4 μg/mL, 10 μM substrate, 450 minutes, pH 5.0; read-out: BACE2 Biochemical FRET based assay pIC50 (converted).
Text: as §1, with “assay” for “assay is an APP derived 13 amino acids peptide that”, “beta-secretase” for “beta-site secretase”, “the beta-secretase,” for “BACE1,”
Briefly in a 384-well format recombinant BACE2 protein in a final concentration of 0.4 μg/mL is incubated for 450 minutes at room temperature with 10 μM substrate in incubation buffer (final concentrations: 33.3 mM Citrate buffer pH 5.0, 0.033% PEG, 2% DMSO) in the absence or presence of compound. Next the amount of proteolysis is directly measured by fluorescence measurement at T=0 and T=450 (excitation at 320 nm and emission at 405 nm). Results are expressed in RFU (Relative Fluorescence Units), as difference between T450 and TO.
as §3, §4, §5, §6, §7, §8

The target of test [6] is T3, BACE2 (Mus musculus, UniProt Q9JL18).
T3 construct: endogenous in cells; host or cells: MIN6 mouse insulinoma cells expressing Flag-V5-TMEM27-HA
T3 sequence (Q9JL18 63-514): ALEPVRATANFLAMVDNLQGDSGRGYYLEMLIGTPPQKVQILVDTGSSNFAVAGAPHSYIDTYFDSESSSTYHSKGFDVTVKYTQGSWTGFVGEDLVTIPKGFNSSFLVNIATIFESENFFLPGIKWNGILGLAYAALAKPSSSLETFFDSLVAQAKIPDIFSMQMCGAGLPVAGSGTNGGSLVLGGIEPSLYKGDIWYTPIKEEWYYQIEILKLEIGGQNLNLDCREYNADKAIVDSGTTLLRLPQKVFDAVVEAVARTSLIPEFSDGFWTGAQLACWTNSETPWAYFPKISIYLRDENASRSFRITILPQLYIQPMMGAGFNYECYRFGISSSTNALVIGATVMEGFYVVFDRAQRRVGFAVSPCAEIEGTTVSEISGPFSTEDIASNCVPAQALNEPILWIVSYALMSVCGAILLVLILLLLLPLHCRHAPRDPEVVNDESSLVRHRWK
The test is described as follows: BACE2 cellular assay in MIN6 cells, secreted TMEM27 (Test Example 2-5). Format: cell-based. Particulars: 24 hours incubation, secreted TMEM27 by MSD, read-out: Cellular MSD assay in Min6 cells TV1EV127 pIC50 (converted). Here is the method:
Cellular BACE2 activity was measured by determination of the level of secreted TMEM27 into the medium of MIN6 cells using an MSD platform. The assay is based on the mouse insulinoma MIN6 cells expressing Flag-V5-TMEM27-HA. When BACE2 cleaves TMEM27 the N-terminal part of TMEM27 with the V5-Flag tag will be shed into the medium, and the amount of this cleaved product is measured with the MSD assay.
Briefly in a 96-well format the cells are incubated for 24 hours in the presence of the compound followed by the measurement of secreted TMEM27 in the medium via MSD using FLAG-L5 coating antibody and a V5 detection antibody. When TMEM27 is captured on the electrode surface of the multi-array microplate the detection antibody, conjugated with the sulfo-Tag™, is in close proximity of the surface, it generates a light via a series of reduction and oxidation reactions. The intensity of the emitted light is measured with the MSD imager to provide a quantitative measure for the analytes in the sample.
as §3, §4, §5, §6, §7, §8

Test [7] addresses T1, BACE1. The test is described as follows: BACE1 cellular αLisa assay in SKNBE2 cells, Abeta 1-42 (Test Example 2-3). The format is cell-based. Also on record: endogenous in cells; host or cells: SKNBE2 human neuroblastoma cells expressing hAPP695. Particulars: SKNBE2 cells expressing hAPP695, 18 hours incubation, read-out: Cellular αLisa assay in SKNBE2 cells Abeta 42 pIC50 (converted). Here is the method:
In two αLisa assays the levels of Abeta 1-42 or Abeta total produced and secreted into the medium of human neuroblastoma SKNBE2 cells are quantified. The assays are based on the human neuroblastoma SKNBE2 expressing the wild type Amyloid Precursor Protein (hAPP695). The compounds are diluted and added to these cells, incubated for 18 hours and then measurements of Abeta 1-42 or Abeta total are taken. Abeta 1-42 or Abeta total are measured by sandwich αLisa using biotinylated antibody AbN/25 attached to streptavidin coated donor beads and antibody cAb42/26 or Ab 4G8 conjugated acceptor beads for the detection of Abeta 1-42 or Abeta total respectively. In the presence of Abeta 1-42 or Abeta total, the beads come into close proximity. The excitation of the donor beads provokes the release of singlet oxygen molecules that trigger a cascade of energy transfer in the acceptor beads, resulting in light emission. Light emission is measured after 1 h incubation (excitation at […] and emission at 615 nm).
as §3
LC=Median of the low control values • =Low control: Reaction without enzyme
HC=Median of the High control values • =High Control: Reaction with enzyme
as §8

T1 sequence (P56817 46-501): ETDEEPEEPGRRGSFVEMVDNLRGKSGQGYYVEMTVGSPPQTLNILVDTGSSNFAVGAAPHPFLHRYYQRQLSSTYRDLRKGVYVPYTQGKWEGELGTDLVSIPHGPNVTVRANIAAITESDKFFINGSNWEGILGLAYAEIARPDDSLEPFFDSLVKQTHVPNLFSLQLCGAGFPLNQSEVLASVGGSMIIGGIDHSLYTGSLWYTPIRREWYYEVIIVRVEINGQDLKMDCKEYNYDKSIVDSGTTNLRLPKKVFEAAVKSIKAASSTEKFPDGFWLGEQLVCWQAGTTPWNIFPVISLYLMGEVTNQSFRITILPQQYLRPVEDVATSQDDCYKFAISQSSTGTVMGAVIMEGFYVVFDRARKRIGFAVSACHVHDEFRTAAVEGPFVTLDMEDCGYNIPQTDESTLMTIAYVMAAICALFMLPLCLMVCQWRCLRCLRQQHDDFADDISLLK

On to `C[C@@H]1C[C@H]2OC(N)=N[C@](CF)(c3cc(NC(=O)c4cc5c(cn4)OC(F)(F)CO5)ccc3F)[C@H]2CO1` [Compound I-053], for which the selectivity on BACE1 [1] (BACE2 IC50 over BACE1 IC50 (FRET)) is listed as 200. Besides, the IC50 worked out at 0.01 µM against BACE1 [1] (FRET, 0.04 μg/mL BACE1, 450 minutes, Citrate buffer pH 5.0) and 2 µM against BACE2 [2]. In addition, the “% Decrease in Abeta 1-42 at 8 h post dosing compared to own baseline” value in test [3] (single dose 0.63 mg/kg) was −31%; in test [3] (single dose 2.5 mg/kg) it was −50%. For the same compound, the “% Decrease in Abeta 1-42 at 25 h post dosing compared to own baseline” value in test [3] (single dose 2.5 mg/kg, 25 h, relevant decrease = >20% decrease) was −27%.
For the compound `Cc1c(C(=O)Nc2ccc(F)c(C3(CF)CCC(C)(S(C)(=O)=O)C(N)=N3)c2)ncc2c1OCC(F)(F)O2` (stereo not drawn) [II-15], the IC50 on BACE1 [4] was 0.0117 µM; on BACE2 [5], 0.331 µM; on BACE2 [6], 0.427 µM; at BACE1 [7] it was 0.0229 µM.
On to `CCS(=O)(=O)[C@]1(CF)CC[C@@](C)(c2cc(NC(=O)c3cc4c(cn3)OC(F)(F)O4)ccc2F)N=C1N` [II-35], for which the IC50 is 0.00537 µM on BACE1 [4], 0.295 µM on BACE2 [5], 0.617 µM at BACE2 [6] and 0.00977 µM at BACE1 [7].
Take `CC1(S(C)(=O)=O)CCC(CF)(c2cc(NC(=O)c3cc4c(cn3)OCC(F)O4)ccc2F)N=C1N` (stereo not drawn) [II-11]: the IC50 on BACE1 [4] is 0.00646 µM; at BACE2 [5], 0.331 µM; on BACE2 [6] it was 0.363 µM; at BACE1 [7], 0.00355 µM.
